Here are results for 18 compounds from US7129250B2, “Neuroprotective and anti-proliferative compounds” (Aegera Therapeutics Inc., priority 2000, dated 2006).

The structures appear in SMILES notation.

Data set [1] relates to CGNs. The data set is described as follows: Cisplatin Killing of CGNs. It is filed as cell-based, CD1 mice. The following applies: Mus musculus; assayed 48 hours after final drug treatment. As to the method: Cisplatin has been used extensively in the treatment of various cancers. One dosblimiting side effect of this chemotherapeutic agent is related to hearing loss as a result of its toxicity to auditory neurons and loss of feeling in the extremities. Cisplatin induces apoptosis to both cultured CGN and cortical neurons.
CGNs were harvested from day 8/9 post-natal CD1 mice, plated on Poly-D-Lycine coated plates and incubated for 6 days at 37° C. under 5% CO2. The cells were treated with media containing drug and cisplatin […].

The test system of a further data set is SCG neurons. Nature of the data set: NGF Withdrawal Killing of SCG Neurons. It counts as cell-based, Sprague-Dawley rats. The following applies: Rattus norvegicus, Neuron, assayed 48 hours after drug. From the text: Cultured Superiour Cervical Ganglion (SCG) neurons of the PNS which have been sustained in media containing Neuron Growth Factor (NGF) undergo apoptotic cell death upon removal of the NGF from the cellular medium. Loss of neuronal trofin support has been implicated in various neurodegenerative disease states in the PNS, such as diabetic neuropathy and neuropahies related to chemotherapeutic and anti-HIV drug treatment.
SCG neurons were harvested from day 1 post natal Sprague-Dawley rats, plated on collagen coated plates and incubated for 5 days in the presence of 50 ng/mL NGF at 37° C. under 5% CO2. The cells were washed with NGF free media, 4 times at 1 hour intervals, at which time drug was added.

The next data set has as its system SHSY-5Y cells. Nature of the data set: Etoposide Killing of SHSY-5Y. It counts as cell-based. The following applies: etoposide 32 uM. As to the method: SHSY-5Y cells were grown in growth media. Cells are placed at 50,000 cells per 96 well. Four days latter the cells were treated with drug for 48 hours prior to etoposide (32 uM) treatment. On day 6 media was changed to that containing etoposide and drug for 4 hours, at which point the media was changed to media containing drug only. Cells are allowed to survive overnight and then assessed for viability with metabolic activity measured (WST-1-Beohringer Mannheime), as shown in TABLE 13.

Data set [2] deals with CGNs. The data set is described as follows: β-Amyloid Aggregation Assay in CGNs. It is filed as cell-based. The following applies: Mus musculus, 120 h; Aβ 25 μM; assayed 5 days after Aβ addition. The text has this:
Various mechanisms have been put forward in order to account for the neurotoxicity related to extracellular Aβ fibril formation. […] Regardless of the mode of action, extracellular Aβ fibril formation acts as an effective apoptotic trigger for neuronal cells and serves as an in vitro model for various neurodegenerative diseases characterized by extracellular protein fibril formation, typified by diseases such as AD and PD.
CGNs were harvested from day 8/9 post-natal CD1 mice, plated on Poly-D-Lycine coated plates and incubated for 6 days at 37° C. under 5% CO2. Pretreated cells were treated with drug 24 hours prior to A-β (25 μM) and drug addition.

Data set [3] has as its system CGNs. The data set is described as follows: High/Low Potassium (HK/LK) assay in CGNs. It counts as cell-based. As to the method: Cultured CGNs which are maintained in a medium containing 26 mM potassium (high K^+ or HK) undergo cell death when the medium is changed to one containing 5 mM potassium (low K^+ or LK). HK maintains the cells in a highly polarized state, duplicating that of fully innervated neurons. The switch to LK (5 mM is more representative of physiological conditions) results in depolarization of the cells, mimicking the loss of neuronal conductivity. […] As these killer genes are turned on by various types of neuronal insult as observed in AD, PD, and stroke, HK/LK is a general in vitro model for neuronal degradation, blanketing a wide range of neurodegenerative diseases. Compounds that protect against HK/LK in CGNs would therefore be efficacious in treatment and/or prevention of various neurodegenerative disease states.
CGNs were harvested from day 8/9 post-natal CD1 mice, plated on Poly-D-Lycine coated plates and incubated for 6 days at 37° C., with […] potassium, under 5% CO2. Pretreated cells were treated with drug 24 hours prior to changing the media to one containing […] potassium and drug. Cells were assayed 16 hours after the final media change using cell TITER96 (Promega).

The next data set concerns HIAP1 mRNA in LAN5 cells. Nature of the data set: LAN5 HAIP1 Down Regulators (RNA levels). It counts as cell-based. The settings on record: HIAP1 RNA level vs control = 1.0; 24 hours drug. As to the method:
LAN5 cells were grown in growth media. Cells were plated at cells 50,000 per well in 96 cells per 96 wells. Five days latter drug was added and the cells were liced 24 hours latter using RLT buffer.

Data set [4] deals with DU145 prostate cancer cells. Nature of the data set: Anticancer Effectiveness on Prostate Tumor Cells (Alamar Blue). It counts as cell-based, Human. The settings on record: for % Survival: 7 days. As to the method: Prostate cancer is often resistant to traditional chemotherapies. DU145 is representative prostated cancer cell line. DU145cells were cultured in the presence of various concentrations of compound 136.
Human prostate DUI45 cells were cultured in 96 well dishes. Cells were treated with various concentrations of test compounds for 7 days. Media was then removed and replaced with fresh media containing Alamar Blue. The cells were incubated for a further 4 hours and Alamar blue and conversion was assessed by fluorescence. Compound effectiveness was determined by assessing the reduction in Alamar blue bioconversion following 7 day treatment.
Background: The colour change of resazurin is a common sign of viable cells or microbes.

Data set [5] deals with CGNs. The data set is described as follows: Ceramide Killing of CGNs. It is filed as cell-based, CD1 mice. The settings on record: ceramide 100 uM; 300 nM, (250 nM in source). The text has this: Ceramide is a native […] found in most mammalian and human cells. The upregulation of endogenous ceramide has been linked to caspase 1 (ICE) induced apoptosis (Suzuki, A. et al. Exp. Cel. Res., 1997, 233, 41). In a similar fashion, the addition of ceramide to cultured CGNs results in caspase induced apoptosis, and is therefore considered an effective in vitro model for the various neurodegenerative diseases described above, which are characterized by caspase induced apoptosis, as observed in stroke models. Addition of selected compounds of the formula I through III, 24 hours prior to the addition of ceramide, to cultured CGNs provided protection against apoptosis, with 10 to 20% of the cells being saved at 1–10 μM drug concentrations (see Example 114).
CGNs were harvested from day 8/9 post-natal CD1 mice, plated on Poly-D-Lycine coated plates and incubated for 6 days at 37° C. under 5% CO2. Cells were pretreated with drug 24 hours prior to ceramide (100 uM) and drug addition.

In data set [6] the test system is CGNs. Nature of the data set: Glutamate Killing of CGNs. The following applies: glutamate 100 uM; 300 nM, (250 nM in source). It counts as cell-based, CD1 mice. The text has this:
Glutaminergic neurons secrete the neurotransmitter glutamate as a part of normal cell signaling processes. Intracellular glutamate levels are regulated by glial cell uptake and conversion to glutamine. Under conditions of oxidative stress, as observed in various neurodegenerative diseases such as stroke, ALS, PD, and HD, glutaminergic neurons release massive amounts of glutamate into the […] fluid, overwhelming the surrounding cells. Stimulation of both NMDA and non NMDA-type glutamate excitory receptors leads to sustained depolarization of postsynaptic dendrosomal membranes, increased membrane permeability, and impaired ion homeostasis, all leading to either apoptotic or necrotic cell death.
CGNs were harvested from day 8/9 post-natal CD1 mice, plated on Poly-D-Lycine coated plates and incubated for 6 days at 37° C. under 5% CO2. Cells were pretreated with drug 24 hours prior to glutamate (100 uM) and drug addition.

Regarding `O=C1NC(=O)C(n2ccc3ccccc32)=C1c1c[nH]c2ccccc12` [Compound 1, 3-(indol-1-yl)-4-(1H-indol-3-yl)-1H-pyrrole-2,5-dione], the melting point is 212 to 213 °C. Besides, in the data set with CGNs [1], the IC50 amounted to 10 µM. Further, the IC50 in the data set on SCG neurons was determined as 20 µM. For the same compound, the “% SHSY-5Y cell survival” value with SHSY-5Y cells (drug 1 μM) amounted to 0%. Also, the “% SHSY-5Y cell survival” value in the data set with SHSY-5Y cells (drug 10 μM) came out at 12.5%.

With `COc1ccc2[nH]cc(C3=C(n4ccc5ccccc54)C(=O)NC3=O)c2c1` [Compound 2, 3-(5-Methoxyindol-3-yl)-4-(indol-1-yl)-1H-pyrrole-2,5-dione], the IC50 in the data set on CGNs [2] and in the data set with CGNs [1] was 10 µM throughout.

As for `O=C1NC(=O)C(n2ccc3ccccc32)=C1c1c[nH]c2ccc(OCc3ccccc3)cc12` [Compound 5, 3-(5-Benzyloxy-1H-indol-3-yl)-4-(indol-1-yl)-pyrrole-2,5-dione], the melting point lay within 217 to 220 °C. Also, the IC50 in the data set on CGNs [1] was 10 µM.

In turn, `O=C1NC(=O)C(n2ccc3cc(OCc4ccccc4)ccc32)=C1c1c[nH]c2ccccc12` [Compound 12, 3-(5-benzyloxyindol-1-yl)-4-(1H-indol-3-yl)-1H-pyrrole-2,5-dione] came in with a melting point of 114 to 116 °C.

`O=C1NC(=O)C(n2ccc3ccccc32)=C1c1c[nH]c2ccc(C#Cc3ccccc3)cc12` [Compound 15, 3-(Indol-1-yl)-4-(5-(β-phenylethynyl)-indol-3-yl)-pyrrole-2,5dione] returned a melting point of 141 to 144 °C.

As to `COc1ccc2[nH]c3c(c4c(n5c6ccccc6cc35)C(=O)NC4=O)c2c1` [Compound 47], in the data set with CGNs [3] (10 μM drug), the “inhibition of HK/LK cell death / protection of CGN neurons” value is on record as “(100% inhibition at 10 (μM)”. The IC50 was determined as 3 µM with CGNs [3] (Mus musculus, HK/LK switch, drug 24 h pre-treatment, assayed 16 h after media change, concentration at which cell death was inhibited by 50%); 10 µM in the data set with CGNs [1]; 10 µM in the data set on SCG neurons.

The compound `CC(=O)n1cc(C2=CC(=O)NC2=O)c2cc(Br)ccc21` [Compound 57, 3-(N-acetyl-5-bromoindol-3-yl)-1H-pyrrole-2,5-dione] showed a melting point of 271 to 272.9 °C. The “Fold Induction” value with HIAP1 mRNA in LAN5 cells was found to be 0.45.

In turn, `CN(C)C(=O)n1cc(C2=CC(=O)NC2=O)c2cc(Br)ccc21` [Compound 58, 3-(N-(N,N-dimethylcarbamoyl)-5-bromoindol-3-yl)-1H-pyrrole-2,5-dione] registered a melting point of 287 to 288 °C. In addition, the “Fold Induction” value with HIAP1 mRNA in LAN5 cells is given as 0.55.

For `COc1ccc(C(=O)n2cc(C3=CC(=O)NC3=O)c3cc(OCc4ccccc4)ccc32)c(OC)c1` [Compound 67, 3-(N-(2,4-dimethoxybenzoyl)-5-benzyloxyindol-3-yl)-1H-pyrrole-2,5-dione], in the data set with SCG neurons, the IC50 was determined as 10 µM.

`Cc1ccc(S(=O)(=O)n2cc(C3=CC(=O)NC3=O)c3cc(OCc4ccccc4)ccc32)cc1` [Compound 70, 3-(N-tosyl-5-benzyloxyindol-3-yl)-1H-pyrrole-2,5-dione]: the “% SHSY-5Y cell survival” value in the data set on SHSY-5Y cells (drug 10 μM) is 7.6%. For the same compound, the “Fold Induction” value in the data set with HIAP1 mRNA in LAN5 cells is 0.21.

With `O=C1C=C(c2cn(Cc3ccccc3)c3ccc(OCc4ccccc4)cc23)C(=O)N1` [Compound 73, 3-(N-benzyl-5-benzyloxyindol-3-yl)-1H-pyrrole-2,5-dione], the “% SHSY-5Y cell survival” value with SHSY-5Y cells (drug 10 μM) is listed as “toxic”.

Turning to `Cc1ccc(S(=O)(=O)n2cc(C3=CC(=O)NC3=O)c3cc(O)ccc32)cc1` [Compound 91, 3-(N-tosyl-5-hydroxyindol-3-yl)-1H-pyrrole-2,5-dione], the IC50 with SCG neurons is 20 µM.

As to `O=C1C=C(c2cn(S(=O)(=O)c3cccs3)c3ccccc23)C(=O)N1` [Compound 97, 3-(N-(2-thiophenesulfonyl)indol-3-yl)-1H-pyrrole-2,5-dione], inhibition in the data set on SCG neurons was half-maximal at 10 µM (IC50).

For the compound `O=C1C=C(c2c[nH]c3ccc(Cl)cc23)C(=O)N1` [Compound 99, 3-(1H-5-chloroindol-3-yl)-1H-pyrrole-2,5-dione], the “% SHSY-5Y cell survival” value with SHSY-5Y cells (drug 10 μM) turned out to be 4.7%.

In turn, `COC(=O)C(C)(C)Cc1c(C2=CC(=O)NC2=O)c2cc(OCc3ccc4ccccc4n3)ccc2n1Cc1ccc(Cl)cc1` [Compound 109] came in with an IC50 with SCG neurons of 10 µM.

With `O=C1NC(=O)C(n2ccc3ccccc32)=C1c1cn(CCCO)c2ccccc12` [Compound 121], the “% SHSY-5Y cell survival” value with SHSY-5Y cells (drug 1 μM) was 5.5%.

In data set [4] (10 μM, after 7 days), `CN(C)CCCn1cc(C2=C(n3ccc4ccccc43)C(=O)NC2=O)c2cc(OCc3ccccc3)ccc21` [Compound 136] registered a cells killed of 100%. In addition, the “% Survival” value is 102.71% in [4] (0.312 um); 97.00% in data set [4] (0.625 um); 99.61% in [4] (1.25 um); 81.81% in data set [4] (2.5 um); 66.75% in [4] (5 um); −1.64% in [4] (10 um). Moreover, the “% Survival” value is on record as −1.00% in data set [4] (20 um) and 1.17% in data set [4] (40 um).

As for `COC(=O)[C@@]1(O)C[C@H]2O[C@]1(C)n1c3ccccc3c3c4c(c5c6ccccc6n2c5c31)C(=O)NC4` [Compound K252a, K252a, reference compound], in the data set on CGNs [3] (higher doses), the toxicity entry is on record as “toxic at higher doses”. For the same compound, the results for the “% CGN Survival” value with CGNs [5] and in the data set on CGNs [6] were 0 (250 nM) % and 4.3 (250 nM) %, respectively. Also, in the data set on SHSY-5Y cells (drug 1 μM), the “% SHSY-5Y cell survival” value amounted to 13.9%. For the same compound, the “Fold Induction” value with HIAP1 mRNA in LAN5 cells is 0.51.

What is called IC50 is the concentration that inhibits the measured activity by half. As a reminder, the melting point is the temperature of the solid-liquid transition.
